Data reported in ChEMBL document CHEMBL5352429, “Designed symmetrical β-hairpin peptides for treating multidrug-resistant salmonella typhimurium infections” (Eur J Med Chem, 2022).
≈ marks a conversion by molar mass, not a printed value. Calls of active or inactive are those of the source. The calls are words filed in the database; no cut-off is given here. Peptide text beside a SMILES is read from it.

Tests used:
[1] = tested on: Salmonella typhimurium; assay: Antibacterial activity against Salmonella typhimurium DT104 in the presence of NaCl by MH broth based assay; type: functional, Salmonella enterica subsp. enterica serovar Typhimurium; conditions: Salmonella enterica
[2] = tested on: Salmonella typhimurium; assay: Antibacterial activity against Salmonella typhimurium DT104 in the presence of KCl by MH broth based assay; type: functional, Salmonella enterica subsp. enterica serovar Typhimurium; conditions: Salmonella enterica
[3] = tested on: Salmonella typhimurium; assay: Antibacterial activity against Salmonella typhimurium DT104 in the presence of NH4Cl by MH broth based assay; type: functional, Salmonella enterica subsp. enterica serovar Typhimurium; conditions: Salmonella enterica
[4] = tested on: Salmonella typhimurium; assay: Antibacterial activity against Salmonella typhimurium DT104 in the presence of CaCl2 by MH broth based assay; type: functional, Salmonella enterica subsp. enterica serovar Typhimurium; conditions: Salmonella enterica
[5] = tested on: Salmonella typhimurium; assay: Antibacterial activity against Salmonella typhimurium DT104 in the presence of MgCl2 by MH broth based assay; type: functional, Salmonella enterica subsp. enterica serovar Typhimurium; conditions: Salmonella enterica
[6] = tested on: Salmonella typhimurium; assay: Antibacterial activity against Salmonella typhimurium DT104 in the presence of FeCl3 by MH broth based assay; type: functional, Salmonella enterica subsp. enterica serovar Typhimurium; conditions: Salmonella enterica
[7] = tested on: Salmonella typhimurium; assay: Antibacterial activity against Salmonella typhimurium DT104 in the presence 25% inactivated mouse serum by MH broth based assay; type: functional, Salmonella enterica subsp. enterica serovar Typhimurium; conditions: Salmonella enterica
[8] = tested on: Salmonella typhimurium; assay: Antibacterial activity against Salmonella typhimurium DT104 in the presence 50% inactivated mouse serum by MH broth based assay; type: functional, Salmonella enterica subsp. enterica serovar Typhimurium; conditions: Salmonella enterica
[9] = tested on: Staphylococcus aureus; assay: Antibacterial activity against Staphylococcus aureus ATCC 29213 incubated overnight by standard microtiter dilution method; type: functional
[10] = tested on: Staphylococcus aureus; assay: Antibacterial activity against methicillin-resistant Staphylococcus aureus ATCC 43300 incubated overnight by standard microtiter dilution method; type: functional
[11] = tested on: Staphylococcus epidermidis; assay: Antibacterial activity against methicillin-resistant Staphylococcus epidermidis ATCC 12228 incubated overnight by standard microtiter dilution method; type: functional
[12] = tested on: Enterococcus faecalis; assay: Antibacterial activity against Enterococcus faecalis ATCC 29212 incubated overnight by standard microtiter dilution method; type: functional
[13] = tested on: Escherichia coli; assay: Antibacterial activity against Escherichia coli O157:H7 CICC 21530 incubated overnight by standard microtiter dilution method; type: functional
[14] = tested on: Salmonella paratyphi; assay: Antibacterial activity against Salmonella paratyphi A CICC 21501 incubated overnight by standard microtiter dilution method; type: functional, Salmonella enterica subsp. enterica serovar Paratyphi A; conditions: Salmonella enterica
[15] = tested on: Salmonella enterica subsp. enterica serovar Paratyphi B; assay: Antibacterial activity against Salmonella paratyphi B CICC 21495 incubated overnight by standard microtiter dilution method; type: functional
[16] = Antibacterial activity against Salmonella paratyphi C CICC 21512 incubated overnight by standard microtiter dilution method; type: functional, Salmonella enterica subsp. enterica serovar Paratyphi C; conditions: Salmonella enterica
[17] = Antibacterial activity against Salmonella enterica subsp. enterica serovar Choleraesuis ATCC 13312 incubated overnight by standard microtiter dilution method; type: functional
[18] = Antibacterial activity against Salmonella enterica subsp. enterica serovar Choleraesuis CICC 21493 incubated overnight by standard microtiter dilution method; type: functional
[19] = tested on: Salmonella enteritidis; assay: Antibacterial activity against Salmonella enteritidis CICC 21527 incubated overnight by standard microtiter dilution method; type: functional, Salmonella enterica subsp. enterica serovar Enteritidis; conditions: Salmonella enterica
[20] = Antibacterial activity against Salmonella wandsworth CICC 21504 incubated overnight by standard microtiter dilution method; type: functional, Salmonella enterica subsp. enterica serovar Wandsworth; conditions: Salmonella enterica
[21] = tested on: Salmonella typhimurium; assay: Antibacterial activity against Salmonella typhimurium CICC 21483 incubated overnight by standard microtiter dilution method; type: functional, Salmonella enterica subsp. enterica serovar Typhimurium; conditions: Salmonella enterica
[22] = tested on: Salmonella typhimurium; assay: Antibacterial activity against Salmonella typhimurium CICC 21913 incubated overnight by standard microtiter dilution method; type: functional, Salmonella enterica subsp. enterica serovar Typhimurium; conditions: Salmonella enterica
[23] = Antibacterial activity against Salmonella blockley CICC 21489 incubated overnight by standard microtiter dilution method; type: functional, Salmonella enterica subsp. enterica serovar Blockley; conditions: Salmonella enterica
[24] = Antibacterial activity against Salmonella dublin CICC 21497 incubated overnight by standard microtiter dilution method; type: functional, Salmonella enterica subsp. enterica serovar Dublin; conditions: Salmonella enterica
[25] = tested on: Salmonella typhimurium; assay: Antibacterial activity against Salmonella typhimurium DT104 ATCC 700408 incubated overnight by standard microtiter dilution method; type: functional, Salmonella enterica subsp. enterica serovar Typhimurium; conditions: Salmonella enterica
[26] = tested on: Candida albicans; assay: Antifungal activity against Candida albicans ATCC 10231 incubated overnight by standard microtiter dilution method; type: functional
[27] = tested on: Erythrocyte; assay: Hemolytic activity in human Red blood cells assessed as hemolysis incubated for 1 hrs by absorbance based microplate reader analysis; type: toxicity, cell-based
[28] = Hemolytic activity in human Red blood cells assessed as hemolysis at 128 ug/ml incubated for 1 hrs by absorbance based microplate reader analysis relative to control; type: toxicity, cell-based, Erythrocyte; conditions: red blood cells (erythrocytes), at 128 µg/mL, read-out: Activity
[29] = tested on: Lipopolysaccharide (LPS); assay: Displacement of BODIPY-TR-cadaverine from Salmonella typhimurium LPS assessed as increase in fluorescence intensity by fluorescence spectrophotometric analysis; conditions: Salmonella enterica subsp. enterica serovar Typhimurium; dose 0.25-8 µg/ml
[30] = tested on: RAW264.7; assay: Inhibition of LPS-stimulated NO production in mouse RAW264.7 cells incubated for 24 hrs by Griess reagent based analysis; type: functional, cell-based; conditions: dose 1-128 µg/ml
[31] = tested on: RAW264.7; assay: Inhibition of LPS-stimulated TNF-alpha production in mouse RAW264.7 cells at 1 to 128 ug/ml incubated for 24 hrs by ELISA analysis; type: functional, cell-based; conditions: dose 1-128 µg/ml
[32] = tested on: RAW264.7; assay: Inhibition of LPS-stimulated IL-1beta production in mouse RAW264.7 cells at 1 to 128 ug/ml incubated for 24 hrs by ELISA analysis; type: functional, cell-based; conditions: dose 1-128 µg/ml
[33] = tested on: RAW264.7; assay: Inhibition of LPS-stimulated IL-8 production in mouse RAW264.7 cells at 1 to 128 ug/ml incubated for 24 hrs by ELISA analysis; type: functional, cell-based; conditions: dose 1-128 µg/ml

SMILES	MIC [1] [µg/mL]	MIC [2] [µg/mL]	MIC [3] [µg/mL]	MIC [4] [µg/mL]	MIC [5] [µg/mL]	MIC [6] [µg/mL]	MIC [7] [µg/mL]	MIC [8] [µg/mL]	MIC [9] [µg/mL]	MIC [10] [µg/mL]	MIC [11] [µg/mL]	MIC [12] [µg/mL]	MIC [13] [µg/mL]	MIC [14] [µg/mL]	MIC [15] [µg/mL]	MIC [16] [µg/mL]	MIC [17] [µg/mL]	MIC [18] [µg/mL]	MIC [19] [µg/mL]	MHC [27] [µg/mL]	also measured
CC(C)C[C@H](NC(=O)[C@H](CCCNC(=N)N)NC(=O)CNC(=O)CNC(=O)[C@@H](N)CCCNC(=N)N)C(=O)N[C@H]1CSSC[C@@H](C(=O)N[C@H](C(=O)NCC(=O)N[C@@H](CCCNC(=N)N)C(N)=O)C(C)C)NC(=O)[C@H](C(C)C)NC(=O)[C@@H]2CSSC[C@H](NC(=O)[C@H](Cc3ccc(O)cc3)NC1=O)C(=O)N[C@@H](CCCNC(=N)N)C(=O)N[C@@H](CCCNC(=N)N)C(=O)N[C@@H](CCCNC(=N)N)C(=O)N[C@@H](Cc1ccccc1)C(=O)N2	16	8	8	16	8	32	32 (≈ 14.8 µM)	64 (≈ 29.7 µM)	–	–	–	–	–	–	–	–	–	–	–	–	–
CC(C)C[C@H](NC(=O)[C@H](CCCCN)NC(=O)[C@H](CS)NC(=O)CNC(=O)[C@H](CO)NC(=O)[C@H](CCCCN)NC(=O)[C@@H](NC(=O)[C@H](CS)NC(=O)[C@H](CCCCN)NC(=O)[C@@H](N)CC(C)C)[C@@H](C)O)C(N)=O (H-LKCTKSGCKL-NH2)	> 128	> 128	> 128	> 128	> 128	> 128	> 128	> 128	> 128	> 128	> 128	> 128	> 128	> 128	> 128	> 128	> 128	> 128	> 128	> 128	MIC [20]: > 128 µg/mL; MIC [21]: > 128 µg/mL; MIC [22]: > 128 µg/mL; MIC [23]: > 128 µg/mL; MIC [24]: > 128 µg/mL; MIC [25]: > 128 µg/mL; MIC [26]: > 128 µg/mL; hemolysis at 1 h, 128 ug/ml [28]: < 10%; Activity [29]: Dose-Dependent Effect; inhibition [30]: Dose-Dependent Effect; inhibition [31]: Active; inhibition [32]: Active; inhibition [33]: Active
CC(C)[C@H](N)C(=O)N[C@@H](CCCCN)C(=O)N[C@@H](CS)C(=O)N[C@H](C(=O)N[C@@H](CCCCN)C(=O)N[C@@H](CO)C(=O)NCC(=O)N[C@@H](CS)C(=O)N[C@@H](CCCCN)C(=O)N[C@H](C(N)=O)C(C)C)[C@@H](C)O (H-VKCTKSGCKV-NH2)	> 128	> 128	> 128	> 128	> 128	> 128	> 128	> 128	> 128	> 128	> 128	32 (≈ 30.4 µM)	> 128	> 128	> 128	> 128	> 128	> 128	> 128	> 128	MIC [20]: > 128 µg/mL; MIC [21]: > 128 µg/mL; MIC [22]: > 128 µg/mL; MIC [23]: > 128 µg/mL; MIC [24]: > 128 µg/mL; MIC [25]: > 128 µg/mL; MIC [26]: > 128 µg/mL; hemolysis at 1 h, 128 ug/ml [28]: < 10%; Activity [29]: Dose-Dependent Effect; inhibition [30]: Dose-Dependent Effect; inhibition [31]: Active; inhibition [32]: Active; inhibition [33]: Active
C[C@@H](O)[C@H](NC(=O)[C@H](CS)NC(=O)[C@H](CCCCN)NC(=O)[C@@H](N)Cc1c[nH]c2ccccc12)C(=O)N[C@@H](CCCCN)C(=O)N[C@@H](CO)C(=O)NCC(=O)N[C@@H](CS)C(=O)N[C@@H](CCCCN)C(=O)N[C@@H](Cc1c[nH]c2ccccc12)C(N)=O (H-WKCTKSGCKW-NH2)	> 128	> 128	> 128	> 128	> 128	> 128	> 128	> 128	> 128	> 128	128 (≈ 104 µM)	128 (≈ 104 µM)	64 (≈ 52.2 µM)	128 (≈ 104 µM)	16 (≈ 13.1 µM)	64 (≈ 52.2 µM)	8 (≈ 6.53 µM)	> 128	> 128	> 128	MIC [20]: 64 µg/mL (≈ 52.2 µM); MIC [21]: > 128 µg/mL; MIC [22]: > 128 µg/mL; MIC [23]: > 128 µg/mL; MIC [24]: > 128 µg/mL; MIC [25]: > 128 µg/mL; MIC [26]: 64 µg/mL (≈ 52.2 µM); hemolysis at 1 h, 128 ug/ml [28]: < 10%; Activity [29]: Dose-Dependent Effect; inhibition [30]: Dose-Dependent Effect; inhibition [31]: Active; inhibition [32]: Active; inhibition [33]: Active
[H]/N=C(/N)N[C@H]1[C@H](O)[C@@H](O)[C@H](O[C@@H]2O[C@@H](C)[C@](O)(C=O)[C@H]2O[C@@H]2O[C@@H](CO)[C@H](O)[C@@H](O)[C@@H]2NC)[C@@H](N/C(N)=N\[H])[C@@H]1O [STREPTOMYCIN]	–	–	–	–	–	–	–	–	–	–	–	–	–	–	–	–	–	–	–	> 128	–
